# According to PubChem BioAssay AID330 (DTP/NCI, 2004):
# Where “and” joins values, the source holds several entries; their conditions need not be identical. Identical values can stand only once. Inconclusive results and toxic doses are left out.
# Test system: P388 leukemia ip, CD2F1 mice, survival T/C
# Assay: NCI In Vivo Anticancer Drug Screen. Data for tumor model P388 Leukemia (intraperitoneal) in CD2F1 (CDF1) mice
# Conditions: endpoint: median survival time, higher = longer survival
# Summary of the method: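 Mice carrying the transplanted tumor received test compound or vehicle. Survival was recorded in each group, and the value is the treated-group measurement divided by that of the vehicle-treated control group.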
# [1] = dose: 50.0 mg/kg/injection, schedule: Q01DX005 (ip), vehicle: Klucel (hydroxypropylcellulose) (HPC)
# [2] = dose: 100.0 mg/kg/injection, schedule: Q01DX005 (ip), vehicle: Klucel (hydroxypropylcellulose) (HPC)
# [3] = dose: 200.0 mg/kg/injection, schedule: Q01DX005 (ip), vehicle: Klucel (hydroxypropylcellulose) (HPC)
# [4] = dose: 15.0 mg/kg/injection, schedule: Q01DX005 (ip), vehicle: saline with Tween-80
# [5] = dose: 30.0 mg/kg/injection, schedule: Q01DX005 (ip), vehicle: saline with Tween-80
# [6] = dose: 60.0 mg/kg/injection, schedule: Q01DX005 (ip), vehicle: saline with Tween-80
# [7] = dose: 50.0 mg/kg/injection, schedule: Q01DX005 (ip), vehicle: saline with Tween-80
# [8] = dose: 100.0 mg/kg/injection, schedule: Q01DX005 (ip), vehicle: saline with Tween-80
# [9] = dose: 200.0 mg/kg/injection, schedule: Q01DX005 (ip), vehicle: saline with Tween-80
# [10] = dose: 12.5 mg/kg/injection, schedule: Q01DX005 (ip), vehicle: saline with Tween-80
# [11] = dose: 25.0 mg/kg/injection, schedule: Q01DX005 (ip), vehicle: saline with Tween-80
# [12] = dose: 50.0 mg/kg/injection, schedule: Q01DX009 (ip), vehicle: saline with Tween-80
# [13] = dose: 100.0 mg/kg/injection, schedule: Q01DX009 (ip), vehicle: saline with Tween-80
# [14] = dose: 200.0 mg/kg/injection, schedule: Q01DX009 (ip), vehicle: saline with Tween-80
# [15] = dose: 100.0 mg/kg/injection, schedule: Q04DX003 (ip), vehicle: Klucel (hydroxypropylcellulose) (HPC)
# [16] = dose: 200.0 mg/kg/injection, schedule: Q04DX003 (ip), vehicle: Klucel (hydroxypropylcellulose) (HPC)
# [17] = dose: 50.0 mg/kg/injection, schedule: Q01DX009 (ip), vehicle: saline
# [18] = dose: 100.0 mg/kg/injection, schedule: Q01DX009 (ip), vehicle: saline
# [19] = dose: 200.0 mg/kg/injection, schedule: Q01DX009 (ip), vehicle: saline
# [20] = dose: 100.0 mg/kg/injection, schedule: Q04DX003 (ip), vehicle: saline with Tween-80
# [21] = dose: 200.0 mg/kg/injection, schedule: Q04DX003 (ip), vehicle: saline with Tween-80
compound,measurement,setting,value
O=C1CSC(c2ccccc2F)N1c1ncccn1 (stereo not given),T/C,"dose: 12.5 mg/kg/injection, schedule: Q01DX005 (ip), vehicle: Klucel (hydroxypropylcellulose) (HPC)",105 % of control
same,T/C,"dose: 25.0 mg/kg/injection, schedule: Q01DX005 (ip), vehicle: Klucel (hydroxypropylcellulose) (HPC)",108 % of control
same,T/C,[1],108 % of control (2×) and 119 % of control
same,T/C,[2],104 % of control and 109 % of control and 119 % of control
same,T/C,[3],100 % of control and 109 % of control
O=C1OC(OC/C(Br)=C(\Br)COC2OC(=O)C(Cl)=C2Cl)C(Cl)=C1Cl (stereo not given),T/C,[4],103 % of control
same,T/C,[5],103 % of control
same,T/C,[6],112 % of control
N#CC1=C(N)OC(/C=C/c2ccccc2)=C(C#N)C1c1ccccc1 (stereo not given),T/C,[7],97 % of control
same,T/C,[8],98 % of control
same,T/C,[9],89 % of control
O=C(Nc1cc(Cl)ccc1C(=O)O)c1cccc(C[n+]2ccccc2)c1,T/C,[10],91 % of control
same,T/C,[11],102 % of control
same,T/C,[7],102 % of control
CS(=O)(=O)OCC1OC(n2ncc(=O)[nH]c2=O)C(O)C1O (stereo not given),T/C,[12],100 % of control
same,T/C,[13],95 % of control
same,T/C,[14],101 % of control
Cc1ccc(S(=O)(=O)C(CCC(=O)c2ccccc2)(CCC(=O)c2ccccc2)[N+](=O)[O-])cc1,T/C,[1],91 % of control
same,T/C,[2],92 % of control
same,T/C,[3],87 % of control
COc1ccc(C(=O)/C=C/c2ccc(OC)c(OC)c2OC)c(OC(C)=O)c1,T/C,[15],98 % of control
same,T/C,[16],91 % of control
same,T/C,"dose: 400.0 mg/kg/injection, schedule: Q04DX003 (ip), vehicle: Klucel (hydroxypropylcellulose) (HPC)",93 % of control
CC1(C)N=C(N)N=C(N)N1c1ccc(S(C)(=O)=O)cc1,T/C,[10],103 % of control
same,T/C,[11],101 % of control
same,T/C,[7],100 % of control and 106 % of control
CC(Cl)CN1COc2ccc3ccc4c(c3c2C1)CN(CC(C)Cl)CO4 (stereo not given),T/C,[1],106 % of control and 107 % of control and 117 % of control
same,T/C,[2],107 % of control and 112 % of control and 123 % of control
same,T/C,[3],117 % of control and 124 % of control
same,T/C,"dose: 400.0 mg/kg/injection, schedule: Q01DX005 (ip), vehicle: Klucel (hydroxypropylcellulose) (HPC)",116 % of control
C=C1C(=O)OC2CCCCC12 (stereo not given),T/C,"dose: 50.0 mg/kg/injection, schedule: Q04DX003 (ip), vehicle: Klucel (hydroxypropylcellulose) (HPC)",104 % of control
same,T/C,[15],105 % of control
same,T/C,[16],101 % of control
O=C1C2=C(OCO2)C(=O)C2=C1OCO2,T/C,[4],104 % of control
same,T/C,[5],101 % of control
same,T/C,[6],106 % of control
Cc1ccc(S(=O)(=O)N/N=C/c2ccccc2Cl)cc1,T/C,"dose: 6.25 mg/kg/injection, schedule: Q01DX009 (ip), vehicle: Klucel (hydroxypropylcellulose) (HPC)",94 % of control
same,T/C,"dose: 12.5 mg/kg/injection, schedule: Q01DX009 (ip), vehicle: Klucel (hydroxypropylcellulose) (HPC)",98 % of control
same,T/C,"dose: 25.0 mg/kg/injection, schedule: Q01DX009 (ip), vehicle: Klucel (hydroxypropylcellulose) (HPC)",106 % of control
same,T/C,"dose: 25.0 mg/kg/injection, schedule: Q01DX009 (ip), vehicle: saline with Tween-80",106 % of control
same,T/C,"dose: 50.0 mg/kg/injection, schedule: Q01DX009 (ip), vehicle: Klucel (hydroxypropylcellulose) (HPC)",104 % of control
same,T/C,[12],104 % of control
same,T/C,"dose: 100.0 mg/kg/injection, schedule: Q01DX009 (ip), vehicle: Klucel (hydroxypropylcellulose) (HPC)",106 % of control
same,T/C,[13],106 % of control
same,T/C,[14],100 % of control
COC1=CC(=O)c2ncc(Cl)cc2C1=O,T/C,[5],111 % of control
same,T/C,[6],100 % of control and 93 % of control
Nc1ccc(-c2csc(Nc3ccnc4cc(Cl)ccc34)n2)cc1,T/C,[7],99 % of control
same,T/C,[8],93 % of control
same,T/C,[9],88 % of control
C=C1C(=O)OC2/C=C(\C)C(O)/C=C\C(C)(O)CC(OC(=O)/C(C)=C/C)C12 (stereo not given),T/C,"dose: 10.0 mg/kg/injection, schedule: Q01DX009 (ip), vehicle: saline",114 % of control
same,T/C,"dose: 20.0 mg/kg/injection, schedule: Q01DX009 (ip), vehicle: saline",101 % of control
same,T/C,"dose: 40.0 mg/kg/injection, schedule: Q01DX009 (ip), vehicle: saline",108 % of control
COc1ccccc1NC(=O)C1=C(C)NC(C)=C(C(=O)Nc2ccccc2OC)C1c1c(Cl)cccc1Cl,T/C,[7],94 % of control
same,T/C,[8],98 % of control
same,T/C,[9],95 % of control
COC(=O)c1c(C(=O)OC)c2c(C)nn3ccc1n23,T/C,[11],96 % of control
same,T/C,[7],96 % of control
same,T/C,[8],98 % of control
same,T/C,[9],93 % of control
C#CC(C)(CC)OC(=O)c1ccccc1C(=O)O (stereo not given),T/C,[17],100 % of control
same,T/C,[18],104 % of control
same,T/C,[19],95 % of control
C[n+]1ccc(Nc2ccc(NC(=O)c3ccc(Nc4cc[n+](C)c5ccc([N+](=O)[O-])cc45)cc3)cc2)cc1,T/C,"dose: 2.0 mg/kg/injection, schedule: Q01DX009 (ip), vehicle: saline",164 % of control
same,T/C,"dose: 4.0 mg/kg/injection, schedule: Q01DX009 (ip), vehicle: saline",158 % of control and 178 % of control
same,T/C,"dose: 8.0 mg/kg/injection, schedule: Q01DX009 (ip), vehicle: saline",177 % of control and 195 % of control
same,T/C,"dose: 16.0 mg/kg/injection, schedule: Q01DX009 (ip), vehicle: saline",226 % of control and 257 % of control
same,T/C,"dose: 32.0 mg/kg/injection, schedule: Q01DX009 (ip), vehicle: saline",281 % of control and 288 % of control
same,T/C,"dose: 64.0 mg/kg/injection, schedule: Q01DX009 (ip), vehicle: saline",121 % of control
CN(C)C(=O)n1ccc(NC=O)n1,T/C,[17],92 % of control
same,T/C,[18],94 % of control
same,T/C,[19],103 % of control
CCCCC(NC(=O)OC(C)(C)C)C(=O)O (stereo not given),T/C,[1],98 % of control
same,T/C,[2],99 % of control
same,T/C,[3],104 % of control
CC1=CC(C)(C(Cl)(Cl)Cl)C(C)=CC1=O (stereo not given),T/C,[1],98 % of control
same,T/C,[2],99 % of control
same,T/C,[3],101 % of control
Cc1cc2nc(CC(=O)c3ccccc3)c(=O)[nH]c2cc1C,T/C,[6],90 % of control
same,T/C,"dose: 120.0 mg/kg/injection, schedule: Q01DX005 (ip), vehicle: saline with Tween-80",90 % of control
same,T/C,"dose: 240.0 mg/kg/injection, schedule: Q01DX005 (ip), vehicle: saline with Tween-80",87 % of control
COc1ccc(OC)c2c(C)c(C)c(Cl)nc12,T/C,"dose: 100.0 mg/kg/injection, schedule: Q01DX001 (ip), vehicle: Klucel (hydroxypropylcellulose) (HPC)",92 % of control
same,T/C,"dose: 200.0 mg/kg/injection, schedule: Q01DX001 (ip), vehicle: Klucel (hydroxypropylcellulose) (HPC)",107 % of control
same,T/C,"dose: 400.0 mg/kg/injection, schedule: Q01DX001 (ip), vehicle: Klucel (hydroxypropylcellulose) (HPC)",95 % of control
COc1ccc(C(=O)CC(C(=O)O)c2ccc3c(c2)OCO3)cc1OC (stereo not given),T/C,[20],100 % of control
same,T/C,[21],90 % of control
same,T/C,"dose: 400.0 mg/kg/injection, schedule: Q04DX003 (ip), vehicle: saline with Tween-80",90 % of control
CCCCCN(C)/N=N/c1nc[nH]c1C(N)=O,T/C,[20],120 % of control
same,T/C,[21],110 % of control
same,T/C,"dose: 600.0 mg/kg/injection, schedule: Q04DX003 (ip), vehicle: saline with Tween-80",90 % of control
